From patent US11028427B2, “Systems and methods for proteomic activity analysis using DNA-encoded probes” (priority 2015, dated 2021)

Legend:
[1] = target: PKA (Homo sapiens, UniProt P17612); assay: PKA peptide substrate kcat/Km comparison; type: biochemical
Text: This extracellular PKA (ecPKA) and other ectokinase activities have recently garnered interest as useful cancer markers. However, the low levels of activity present challenges for detection using conventional methods. Conventional techniques to detect ecPKA in patient samples have relied exclusively on radioactive assays; however, exposure to radioactivity is problematic for those performing the assays, as is the cumbersome amount of paperwork and red tape associated obtaining approval for the use of radioactive assays and the disposal of radioactive waste. However, the PKA level in the serum of healthy individuals has been estimated at about 3 pM, which is below other conventional assay detection limits and, thus, problematic. Using the techniques described herein, a DNA-peptide substrate probe was synthesized based on the highly specific protein inhibitor for PKA—protein kinase inhibitor (PKI)—with the sequence […]. This peptide has about a 100-fold greater kcat/Km than the RRFSL peptide for PKA and provided a significant increase (e.g., a 100-fold) in assay sensitivity. Accordingly, the method 300 for detecting proteomic activity using DNA-encoded probes could provide sensitivity for detection of PKA activity in the bloodstream of a subject to accurately identify upregulation, for example, of ecPKA, which can be indicative of cancer.

[2] = tested on: caspase 3 in lysates from HeLa cells; assay: Caspase 3 activity in HeLa cell lysates with DNA-encoded probe, qPCR; type: cell-based; conditions: HeLa cell lysates with vs without staurosporine treatment to induce apoptosis
[3] = target: T1, BSA (Bos taurus, UniProt P02769); assay: Bio-layer interferometry analysis of binding to BSA; design: species or system bovine; conditions: BSA at 10 μM; data not shown
Procedure: (§1) This crosslinking likely reflects the propensity of BSA to bind to hydrophobic small molecules and potentially to sulfonamides specifically. Thus, this labeling may still be considered ligand-dependent.
DNA conjugates were purified on a Varian Pro Star HPLC system and analytical analysis on an Agilent 1100 series HPLC system, both using Agilent Microsorb-MV 300-5 C18 250×4.6 mm reverse phase columns. Analytical separations were performed using 100 mM triethylammonium acetate (TEAA), pH 5.5 in water (A) or 100 mM triethylammonium acetate in 90% MeCN (B) with a linear gradient from 5-60% B over 22 minutes. Purifications were performed using the previous or 0.75% (v/v) 1,1,1,3,3,3-hexafluoropropan-2-ol, and 10 μM EDTA to pH 7.0 with triethylamine in water (A) or 90% MeOH (B) with a linear gradient from 5-50% B over 22 minutes. ESI-MS analysis was completed using an ABSciex 4500 QTrap from fractions collected from HFIP-based HPLC purifications. MALDI analysis was completed on an Applied Biosystems Voyager DE PRO instrument operated by the Purdue University Campus-Wide Mass Spectrometry Center after TEAA-based purification, ethanol precipitation, and ZipTip cleanup. On-DNA ligand dissociation constants were determined using a ForteBio Octet Red384. […] All gel images were recorded by a GE Healthcare Typhoon Trio+ with gel band quantifications determined using ImageJ software.

[4] = target: biotinylated B. CAII (Bos taurus, UniProt P00921); assay: Enrichment of ligands via crosslinking (SDS + stringent washes), qPCR; type: binding, bovine; conditions: 1 μM CAII
[5] = target: Biotinylated B. CAII immobilized on magnetic beads (Bos taurus, UniProt P00921); assay: Enrichment of ligands via solid-phase affinity pulldown, qPCR; type: binding, bovine; conditions: for Enrichment (fold change relative to non-ligand (Bz) DNA construct): Solid Phase Affinity Pull down
Text: To prepare constructs for test selections, two CAII ligands and a non-ligand control (FIG. 17) were synthesized on a 5′-amine-modified, 40-mer oligonucleotide, which contained a PEG spacer between two 20-mer sequences as previously described. Using these oligos as primers in a PCR with unique 100-mer templates gave 100-mer dsDNA products tethered to the ligand-containing 20-mer ssDNA. DNA templates assigned to each ligand 1302 contained a unique, internal 20-mer sequence for use as a specific priming site to enable qPCR analysis of ligand enrichments. A mock library was then prepared by mixing ligand constructs GL-CBS and D-CBS at 0.1 nM each with an excess of control, non-ligand construct (Bz) (10 nM).
Using this mixture, test selections were conducted using the crosslinking approach with the sulfonyl fluoride oligo or using a traditional solid-phase selection with CAII immobilized on magnetic beads.
Biotinylated B. CAII (1.2× based on magnetic bead capacity) was immobilized onto pre-washed Nanolink Streptavidin Magnetic Beads by incubating in 0.1 M sodium phosphate, pH 8.0, 0.25 M NaCl, 0.02% (v/v) Tween-20, 1.0 mg/mL tRNA, 10 μM BSA for 2 h at RT. The magnetic beads were then separated and supernatant removed. The CAII-bound magnetic beads were then washed with the above buffer three times and a premix of ligand-dsDNA and non-ligand-dsDNA (0.1 nM and 10 nM, respectively) in the above buffer (in the appropriate volume to give the desired effective protein concentration) was added and incubated at RT for 1.5 h. The magnetic beads were then separated and DNA supernatant removed. The CAII-bound magnetic beads were then washed with the above buffer five times, maintaining the same effective protein concentration in each wash. After the final wash, the magnetic beads were suspended in […] and heated at 95° C. for 5 min. qPCR analysis of the premix and magnetic bead elution was completed by comparison of CT standard curves of identical dsDNA constructs.

[6] = target: T1, BSA; assay: Crosslinking to BSA in reactions lacking the target protein, SDS-PAGE; type: binding, bovine; conditions: reactive group phenyl azide (5); reactions that lacked the target protein
Procedure: as §1
Photocrosslinking was performed as described above, except the system was allowed to incubate with both the ligand-ssDNA and reactive group-ssDNA′ for 30 minutes at RT. Irradiation was completed by exposure to a 4W 356 nm UV light source at 4° C. for 1 hour, quenched by the addition 6×SDS-loading buffer, and directly analyzed by SDS-PAGE. Gels were imaged immediately for FAM fluorescence and then Coomassie stained.

Sequence of Biotinylated B. CAII immobilized on magnetic beads (P00921 whole entry): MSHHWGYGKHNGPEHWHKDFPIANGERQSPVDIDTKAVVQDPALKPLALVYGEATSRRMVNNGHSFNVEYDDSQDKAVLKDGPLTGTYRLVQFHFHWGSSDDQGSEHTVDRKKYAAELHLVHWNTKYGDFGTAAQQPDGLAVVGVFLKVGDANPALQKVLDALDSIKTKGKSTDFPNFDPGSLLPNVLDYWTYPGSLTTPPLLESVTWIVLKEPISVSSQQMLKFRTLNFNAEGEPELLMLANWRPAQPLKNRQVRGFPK
Sequence of biotinylated B. CAII (P00921 whole entry): as above
T1 sequence (P02769 25-607): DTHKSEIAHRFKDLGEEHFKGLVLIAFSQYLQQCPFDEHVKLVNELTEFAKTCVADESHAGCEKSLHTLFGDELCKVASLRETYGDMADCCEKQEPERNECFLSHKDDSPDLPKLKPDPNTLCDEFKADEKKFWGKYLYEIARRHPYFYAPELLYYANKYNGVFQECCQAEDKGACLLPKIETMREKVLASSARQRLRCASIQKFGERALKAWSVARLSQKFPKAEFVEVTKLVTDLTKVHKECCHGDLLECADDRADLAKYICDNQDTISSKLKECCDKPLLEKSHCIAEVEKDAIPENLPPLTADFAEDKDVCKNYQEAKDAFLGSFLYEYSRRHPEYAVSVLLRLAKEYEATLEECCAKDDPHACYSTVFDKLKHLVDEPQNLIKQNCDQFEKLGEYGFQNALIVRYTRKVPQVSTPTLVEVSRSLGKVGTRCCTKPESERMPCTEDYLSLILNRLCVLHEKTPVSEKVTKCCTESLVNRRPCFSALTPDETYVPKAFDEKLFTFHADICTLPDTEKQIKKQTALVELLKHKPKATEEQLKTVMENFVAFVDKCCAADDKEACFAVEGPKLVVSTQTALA

GRTGRRNSI
kcat/Km relative to the RRFSL peptide [1]: ~100 fold

CN[C@@H]1C[C@H]2O[C@@](C)([C@@H]1OC)n1c3ccccc3c3c4c(c5c6ccccc6n2c5c31)C(=O)NC4 [staurosporine]
Increase in caspase activity [2]: ~6 fold

glycylleucine carboxybenzylsulfonamide [GL-CBS]
Binding to BSA [3]: did not indicate binding
Enrichment (fold change relative to non-ligand (Bz) DNA construct) ([4]; Without X-linking (3'-OH ssDNA)): 22 fold
Enrichment (fold change in concentration of ligand-DNA construct relative to non-ligand (Bz) DNA construct) ([4]; X-linking with 3 (sulfonyl fluoride)): 17,000 fold
Overall enrichment in solid-phase selection compared to crosslinking selection (lower) ([5]; 1 μM CAII): 20 fold
Recovery in solid-phase selection compared to crosslinking selection (greater) ([5]; 1 μM CAII): approximately 5 fold
Enrichment (fold change relative to non-ligand (Bz) DNA construct) ([5]; 1 μM CAII): 720 fold
Enrichment (fold change relative to non-ligand (Bz) DNA construct) ([5]; 17 μM CAII (estimated)): 610 fold
BSA crosslinking [6]: significant levels of BSA crosslinking
